The results in this text go back to publication PMC11278660, “Molecular, Genetic, and Biochemical Characterization of OXA-484 Carbapenemase, a Difficult-to-Detect R214G Variant of OXA-181” (Microorganisms, 2024).

For orientation: IC50 means the concentration needed to halve the response being measured.

Where two headings read alike, the source gives them in different places.

Experiment [1] deals with T1, OXA-484.
T1 construct: gene blaOXA-484; mature beta-lactamase AA20-265 in pET41b(+), expressed in E. coli BL21(DE3), purified; gene 798 bp; natural variant equal to OXA-181 with R214G
Kind of experiment: UV spectrophotometry, initial rates, Eadie-Hofstee plot. In kind it is biochemical, Escherichia coli. Particulars: 30 °C, 100 mM sodium phosphate, pH 7.0. The source says:
UV spectrophotometry, initial rates, Eadie-Hofstee plot on OXA-484

For experiment [2], the system named is T1, OXA-484. Kind of experiment: inhibition of beta-lactam hydrolysis. Particulars: reporter substrate not stated. It counts as biochemical, Escherichia coli.

On to `CC1(C)S[C@@H]2[C@H](NC(=O)[C@H](N)c3ccccc3)C(=O)N2[C@H]1C(=O)O` [Ampicillin], for which the Km in experiment [1] (read-out: Km (μM) / OXA-484) came out at 653 ± 72.2 µM. Turning to `CC1(C)S[C@@H]2[C@H](NC(=O)Cc3ccccc3)C(=O)N2[C@H]1C(=O)O` [Benzylpenicillin], in experiment [1] (read-out: Km (μM) / OXA-484), the Km amounted to 33 ± 1.9 µM. Regarding `CC(=O)OCC1=C(C(=O)O)N2C(=O)[C@@H](NC(=O)Cc3cccs3)[C@H]2SC1` [Cefalotin], the Km in experiment [1] (read-out: Km (μM) / OXA-484) came out at 37 ± 2.6 µM. As to `CO/N=C(\C(=O)N[C@@H]1C(=O)N2C(C(=O)O)=C(COC(C)=O)CS[C@H]12)c1csc(N)n1` [Cefotaxime], the Km in experiment [1] (read-out: Km (μM) / OXA-181) was > 1000 µM.

Take `C[C@@H](O)[C@H]1C(=O)N2C(C(=O)O)=C(S[C@@H]3CN[C@H](C(=O)Nc4cccc(C(=O)O)c4)C3)[C@H](C)[C@H]12` [Ertapenem]: the Km in experiment [1] (read-out: Km (μM) / OXA-484) came out at 27 ± 1.2 µM. Still for that read-out and setting: as for `C[C@@H](O)[C@H]1C(=O)N2C(C(=O)O)=C(SCCN=CN)C[C@H]12` [Imipenem], the figure is 6 ± 2.1 µM; as for `C[C@@H](O)[C@H]1C(=O)N2C(C(=O)O)=C(S[C@@H]3CN[C@H](C(=O)N(C)C)C3)[C@H](C)[C@H]12` [Meropenem], 263 ± 9.4 µM. As for `CO[C@@]1(NC(=O)C(C(=O)O)c2ccsc2)C(=O)N2[C@@H](C(=O)O)C(C)(C)S[C@@H]21` (stereo partly shown) [Temocillin], the Km in experiment [1] (read-out: Km (μM) / OXA-484) came out at 178 ± 25.1 µM. On to `O=C(O)[C@H]1/C(=C/CO)O[C@@H]2CC(=O)N21` [clavulanic acid], for which the IC50 in experiment [2] was 19 µM.

`C[C@]1(Cn2ccnn2)[C@H](C(=O)O)N2C(=O)C[C@H]2S1(=O)=O` [tazobactam] registered an IC50 in experiment [2] of 1.09 µM.
